Counter-ions that a name gives are not always drawn.
Columns and labels:
[1] = target: HDAC8 (Homo sapiens (Human), UniProt Q9BY41); assay: In vitro enzyme inhibition assay - HDAC (HDAC-Glo I/II), HDAC8; assay type: biochemical; conditions: read-out: HDAC IC50 (nM) HDAC 8
Method: 2. In Vitro Enzyme Inhibition Assay—HDAC
The effect of the compound on the enzymatic activity of pan-HDAC and two isoforms (HDAC1 and HDAC8) was examined using the HDAC-Glo I/II Assay and Screening System assay to assess the level of inhibition of HDAC protease activity and selectivity in each isoform. The proteins and detection reagents were from the HDAC-Glo™ I/II Assay and Screening System (Promega). A 1 mM stock solution of the compound was prepared in DMSO and diluted in a 5-fold gradient to create a series of 8 concentrations, and a specific volume of the highest concentration was diluted 25 times with HDAC Buffer to obtain 4× working solution of the compound. […] The 384-well plate was then read on a multifunctional microplate reader, with the Luminescence channel selected to record Luminescence values (RLU). The inhibition rate was calculated using the following formula: […]
Note: ‘Negative’ refers to the group without the inhibitor; ‘Blank’ refers to the group without the enzyme.
The IC50 value was calculated by fitting the inhibition rate by GraphPad Prism software, employing log (inhibitor) vs. response-Variable Slope (four parameters) model.

[2] = target: LSD1 (Homo sapiens (Human), UniProt O60341); assay: In vitro enzyme inhibition assay - LSD1 (HTRF); assay type: biochemical
[3] = system: NCI-H69 cells; assay: In vitro cell inhibition assay - NCI-H69 cell proliferation (CellTiter-Glo); assay type: cell-based; conditions: Homo sapiens, NCI-H69, H69 small cell lung cancer cell proliferation
In short: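 Cells seeded at 1×10^3 per well and incubated overnight at 37° C., 5% CO2, then treated with 8-point 5-fold compound dilutions in RPMI-640 with 20% FBS for 7 days. Viable cells measured by CellTiter-Glo luminescence; IC50 fitted from inhibition relative to no-inhibitor and no-cell controls.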

[4] = system: NCI-H1417 cells; assay: In vitro cell inhibition assay - H1417 cell proliferation (CellTiter-Glo); assay type: cell-based; conditions: Homo sapiens, NCI-H1417, H1417 small cell lung cancer cell proliferation
In short: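 Cells exposed to 8 compound concentrations (5-fold dilutions) in BEGM with 10% FBS for 7 days at 37° C., 5% CO2. Viable cells measured by CellTiter-Glo luminescence; inhibition versus no-inhibitor and no-cell controls, IC50 fitted.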

[5] = target: pan-HDAC; assay: In vitro enzyme inhibition assay - HDAC (HDAC-Glo I/II), pan-HDAC; assay type: biochemical
In short: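 The compound, serially diluted 5-fold in DMSO across 8 concentrations starting from a 1 mM stock, was made up as 4× working solutions in HDAC buffer. It was then tested in the HDAC-Glo I/II system, and luminescence was recorded. IC50 values came from variable-slope four-parameter curves of inhibition rate.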

Sequence of HDAC8 (Q9BY41 whole entry): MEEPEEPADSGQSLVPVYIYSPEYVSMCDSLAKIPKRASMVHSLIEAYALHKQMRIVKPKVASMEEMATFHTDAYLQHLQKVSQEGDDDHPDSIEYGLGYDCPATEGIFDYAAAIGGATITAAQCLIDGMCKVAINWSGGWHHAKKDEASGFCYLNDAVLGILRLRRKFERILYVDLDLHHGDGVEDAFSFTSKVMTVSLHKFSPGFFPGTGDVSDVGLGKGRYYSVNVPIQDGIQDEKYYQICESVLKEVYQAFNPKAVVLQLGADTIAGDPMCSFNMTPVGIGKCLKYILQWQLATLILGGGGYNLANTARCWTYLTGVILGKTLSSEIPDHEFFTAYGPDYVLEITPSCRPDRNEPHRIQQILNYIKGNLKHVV

| IC50 [1] [nM] | IC50 [2] [nM] | IC50 [3] [nM] | IC50 [4] [nM] | IC50 [5] [nM] | SMILES |
| --- | --- | --- | --- | --- | --- |
| 140 | 0.07 | 1140 | 1.31 | 82.4 | N#Cc1ccc(-c2c(-c3ccc(OCCc4ccc(/C=C/C(=O)NO)cc4)c(O)c3)cnc(N3CCC(N)CC3)c2C#N)cc1F [Example 231, (E)-3-(4-(2-(4-(6-(4-Aminopiperidin-1-yl)-5-cyano-4-(4-cyano-3-fluorophenyl)pyridin-3-yl)-2-hydroxyphenoxy)ethyl)phenyl)-N-hydroxyacrylamide hydrochloride] |
| – | 2.36 | 25.2 | 11.6 | 10.2 | N#Cc1ccc(-c2c(-c3ccc(Cl)c(O)c3)cnc(N3CCC(NCc4ccc(/C=C/C(=O)NO)cn4)CC3)c2C#N)cc1F [Example 239, (E)-3-(6-(((1-(5-(4-Chloro-3-hydroxyphenyl)-3-cyano-4-(4-cyano-3-fluorophenyl)pyridin-2-yl)piperidin-4-yl)amino)methyl)pyridin-3-yl)-N-hydroxyacrylamide formate] |
| – | 0.02 | 99.2 | 2.31 | 24.8 | CC(C)(O)Cn1nnc2cc(-c3cnc(N4CCC(NCc5ccc(/C=C/C(=O)NO)cc5)CC4)c(C#N)c3-c3ccc(C#N)c(F)c3)c(F)c(F)c21 [Example 226, (E)-3-(4-(((1-(3-Cyano-4-(4-cyano-3-fluorophenyl)-5-(6,7-difluoro-1-(2-hydroxy-2-methylpropyl)-1H-benzo[d][1,2,3]triazol-5-yl)pyridin-2-yl)piperidin-4-yl)amino)methyl)phenyl-N-hydroxyacrylamide formate] |
| – | 0.93 | 14.3 | 10.8 | 5.38 | N#Cc1ccc(-c2c(-c3ccc(N4CCOCC4)c(O)c3)cnc(N3CCC(NCc4ccc(/C=C/C(=O)NO)cn4)CC3)c2C#N)cc1F [Example 246, (E)-3-(6-(((1-(3-Cyano-4-(4-cyano-3-fluorophenyl)-5-(3-hydroxy-4-morpholinophenyl)pyridin-2-yl)piperidin-4-yl)amino)methyl)pyridin-3-yl)-N-hydroxyacrylamide formate] |
| – | 7.04 | 11.1 | 11.8 | 0.61 | COc1cc(F)c(-c2cnc(N3CCC(NCc4ccc(/C=C/C(=O)NO)cc4)CC3)c(C)c2-c2ccc(C#N)nc2)cc1O [Example 262, (E)-3-(4-(((1-(6-Cyano-5′-(2-fluoro-5-hydroxy-4-methoxyphenyl)-3′-methyl-[3,4′-bipyridin]-2′-yl)piperidin-4-yl)amino)methyl)phenyl)-N-hydroxyacrylamide formate] |

Continued, compound first:

| SMILES | IC50 [1] [nM] | IC50 [2] [nM] | IC50 [3] [nM] | IC50 [4] [nM] | IC50 [5] [nM] |
| --- | --- | --- | --- | --- | --- |
| CNc1ccc(-c2cnc(N3CCC(NCc4cnc(/C=C/C(=O)NO)nc4)CC3)c(C#N)c2-c2ccc(C#N)c(F)c2)cc1O [Example 196, (E)-3-(5-(((1-(3-Cyano-4-(4-cyano-3-fluorophenyl)-5-(3-hydroxy-4-(methylamino)phenyl)pyridin-2-yl)piperidin-4-yl)amino)methyl)pyrimidin-2-yl)-N-hydroxyacrylamide hydrochloride] | 26.5 | 6.68 | 83.3 | 39.3 | 5.69 |
| CN(C)c1ccc(-c2cnc(N3CCC(NCc4ccc(/C=C/C(=O)NO)cc4)CC3)c(C#N)c2-c2ccc(C#N)c(F)c2)cc1O [Example 153, (E)-3-(4-(((1-(3-Cyano-4-(4-cyano-3-fluorophenyl)-5-(4-(dimethylamino)-3-hydroxyphenyl)pyridin-2-yl)piperidin-4-yl)amino)methyl)phenyl)-N-hydroxyacrylamide formate] | 400 | 0.74 | 65.5 | 6.21 | 5.49 |
| COc1cc(N2CCC(N)CC2)nc(-c2ccc(C#N)c(F)c2)c1-c1ccc(OCCCCCCC(=O)NO)c(O)c1 [Example 27, 7-(4-(6-(4-aminopiperidin-1-yl)-2-(4-cyano-3-fluorophenyl)-4-methoxypyridin-3-yl)-2-hydroxyphenoxy)-N-hydroxyheptanamide hydrochloride] | 186 | 1.38 | – | 48.9 | 134 |
| N#Cc1ccc(-c2c(-c3ccc(C(F)(F)F)c(O)c3)cnc(N3CCC(NCc4ccc(CCC(=O)NO)cc4)CC3)c2C#N)cc1F [Example 190, 3-(4-((1-(3-Cyano-4-(4-cyano-3-fluorophenyl)-5-(3-hydroxy-4-(trifluoromethyl)phenyl)pyridin-2-yl)piperidin-4-yl)amino)methyl) phenyl)-N-hydroxypropanamide formate] | 336 | 2.85 | 93.4 | 7.33 | 5.96 |
| N#Cc1ccc(-c2cc(OCc3ccc(/C=C/C(=O)NO)cc3)cc(N3CCC(N)CC3)n2)cc1F [Example 69, (E)-3-(4-(((2-(4-Aminopiperidin-1-yl)-6-(4-cyano-3-fluorophenyl)pyridin-4-yl)oxy)methyl)phenyl)-N-hydroxyacrylamide formate] | 198 | > 1000 | – | – | 30.1 |
| N#Cc1ccc(-c2nc(N3CCC(N)CC3)cc(O)c2-c2ccc(OCCCCCCC(=O)NO)c(O)c2)cc1F [Example 19, 7-(4-(6-(4-aminopiperidin-1-yl)-2-(4-cyano-3-fluorophenyl)-4-hydroxypyridin-3-yl)-2-hydroxyphenoxy)-N-hydroxyheptanamide hydrochloride] | 221 | 0.86 | – | 2820 | 174 |
| N#Cc1ccc(-c2c(-c3ccc(OCCCCCCC(=O)NO)c(O)c3)cnc(N3CCC(N)CC3)c2C#N)cc1F [Example 25, 7-(4-(6-(4-Aminopiperidin-1-yl)-5-cyano-4-(4-cyano-3-fluorophenyl)pyridin-3-yl)-2-hydroxyphenoxy)-N-hydroxyheptanamide hydrochloride] | 129 | 0.23 | – | 50.1 | 6.66 |
| N#Cc1ccc(-c2cc(C(=O)N3C4CCC3CC(N)C4)sc2-c2ccc(OCCCCCCC(=O)NO)c(O)c2)cc1F (centres unmarked) [Example 32, 7-(4-(5-(3-amino-8-azabicyclo[3.2.1]octane-8-carbonyl)-3-(4-cyano-3-fluorophenyl)thiophen-2-yl)-2-hydroxyphenoxy)-N-hydroxyheptanamide hydrochloride] | 279 | 0.35 | – | 54.7 | 14 |
| N#Cc1ccc(-c2nc(N3CC4CC3CC4N)n3ccnc3c2-c2ccc(OCCCCCCC(=O)NO)c(O)c2)cc1F (centres unmarked) [Example 22, 7-(4-(5-(5-(5-Amino-2-azabicyclo[2.2.1]heptan-2-yl)-7-(4-cyano-3-fluorophenyl)imidazo[1,2-c]pyrimidin-8-yl)-2-hydroxyphenoxy)-N-hydroxyheptanamide hydrochloride] | – | 0.31 | 4730 | 106 | 144 |
| COc1ccc(-c2cnc(N3CCC(C)(NCc4ccc(/C=C/C(=O)NO)nc4)CC3)c(C#N)c2-c2ccc(C#N)c(F)c2)cc1O [Example 213, (E)-3-(5-(((1-(3-Cyano-4-(4-cyano-3-fluorophenyl)-5-(3-hydroxy-4-methoxyphenyl)pyridin-2-yl)-4-methylpiperidin-4-yl)amino)methyl)pyridin-2-yl)-N-hydroxyacrylamide formate] | – | 2.12 | 76.1 | 7.32 | 19.7 |
| CC(C)(O)Cn1nnc2cc(-c3cnc(N4CCC(NCc5ccc(/C=C/C(=O)NO)nc5)CC4)c(C#N)c3-c3ccc(C#N)c(F)c3)ccc21 [Example 225, (E)-3-(5-(((1-(3-Cyano-4-(4-cyano-3-fluorophenyl)-5-(1-(2-hydroxy-2-methylpropyl)-1H-benzo[d][1,2,3]triazol-5-yl)pyridin-2-yl)piperidin-4-yl)amino)methyl)pyridin-2-)-N-hydroxyacrylamide formate] | – | 0.35 | 78 | 8.51 | 3.43 |
| COc1ccc(-c2c(-c3ccc(C#N)c(F)c3)nc(N3CCC(NCc4ccc(/C=C/C(=O)NO)cc4)CC3)n(C)c2=O)cc1O [Example 67, (E)-3-(4-(((1-(4-(4-Cyano-3-fluorophenyl)-5-(3-hydroxy-4-methoxy-phenyl)-1-methyl-6-oxo-1,6-dihydro-pyrimidin-2-yl)piperidin-4-yl)amino)methyl)phenyl)-N-hydroxy-acrylamide formate] | – | 1.89 | 444 | 21.2 | 39 |
